Assay results: patent US20020137929A1, “1 - (3-heterocyclylphenyl) isothiourea, -isourea, -guanidine and -amidine herbicidal agents” (Intellectual Property Department, BASF Aktiengesellschaft, priority 1998, published 2002)

How the values were obtained:
ABUTH (Velvetleaf) = assay: Postemergence herbicidal evaluation; assay type: in vivo, Abutilon theophrasti; conditions: postemergence
Method in brief: (§1)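 Each compound, dispersed in an acetone/water mix (50/50) carrying 0.5% TWEEN 20, is nozzle-sprayed at 40 psi on approximately two-week-old seedlings at about 0.0156–0.500 kg/ha. Plants are assessed 4–5 weeks afterward on a 0–9 scale relative to control; duplicate tests are averaged.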

[1] = system: CHEAL (Lambsquarters, Common); assay: Preemergence herbicidal evaluation; assay type: in vivo, Chenopodium album; conditions: rated 4-5 weeks after treatment
Method in brief: (§2)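 Test compound, dissolved in aqueous acetone, was sprayed over planted soil cups at an equivalent of about 0.0156 to 0.500 kg/ha; seeds had been mixed with potting soil. Greenhouse growth followed, with visual 0-9 scoring of injury at four to five weeks.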

[2] = system: GLXMAW (Soybean, Williams); assay: Postemergence herbicidal evaluation; assay type: in vivo, Glycine max, (L.) Merr. cv Williams; conditions: postemergence
Method in brief: as §1

ECHCG (Barnyardgrass) = assay: Postemergence herbicidal evaluation; assay type: in vivo, Echinochloa crus-galli; conditions: postemergence
Method in brief: as §1

AMBEL (Ragweed, Common) [3] = assay: Preemergence herbicidal evaluation; assay type: in vivo, Ambrosia artemisifolia; conditions: rated 4-5 weeks after treatment
Method in brief: as §2

ORYSAT (Rice, Tebonnet) = assay: Postemergence herbicidal evaluation; assay type: in vivo, Oryza sativa, (L.) Tebonnet; conditions: postemergence
Method in brief: as §1

CYPSE (Flatsedge) [4] = assay: Preemergence weed control under flooded paddy conditions; assay type: in vivo, Cyperus serotinus; conditions: rated 3-4 weeks after treatment
Method in brief: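 Silt loam, seeds in top 0.5 cm; flood held 1.5-3 cm; test cpd as acetone/water 50/50 into flood water, ~0.0313-0.500 kg/ha a.i.; greenhouse 3-4 wk; visual 0-9 score vs control.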

GALAP (Galium) = assay: Preemergence herbicidal evaluation; assay type: in vivo, Galium aparine; conditions: rated 4-5 weeks after treatment
Method in brief: as §2

CASOB (Sicklepod) = assay: Preemergence herbicidal evaluation; assay type: in vivo, Cassia obtusifolia; conditions: rated 4-5 weeks after treatment
Method in brief: as §2

[5] = system: CHEAL (Lambsquarters, Common); assay: Postemergence herbicidal evaluation; assay type: in vivo, Chenopodium album; conditions: postemergence
Method in brief: as §1

AMBEL (Ragweed, Common) [6] = assay: Postemergence herbicidal evaluation; assay type: in vivo, Ambrosia artemisifolia; conditions: postemergence
Method in brief: as §1

ZEAMX (Corn, Field) = assay: Postemergence herbicidal evaluation; assay type: in vivo, Zea mays; conditions: postemergence
Method in brief: as §1

CYPSE (Flatsedge) [7] = assay: Postemergence weed control under flooded paddy conditions; assay type: in vivo, Cyperus serotinus; conditions: postemergence weeds, rated 3 to 4 weeks after treatment
Method in brief: (§3)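 Flood-water application, about 0.0313–0.500 kg/ha a.i. in aqueous/acetone 50/50 v/v; water depth 1.5–3 cm throughout. Weeds 3–5 cm, rice 1.5–2.5 leaf. Greenhouse; 0–9 visual rating vs control at 3–4 wk.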

CYPIR (Rice Flatsedge) = assay: as above; assay type: in vivo, Cyperus iria; conditions: postemergence weeds, rated 3 to 4 weeks after treatment
Method in brief: as §3

## COC(=O)[C@H](Cc1ccc([N+](=O)[O-])cc1)N1C(=O)CSC1=Nc1cc(-n2c(=O)cc(C(F)(F)F)n(C)c2=O)c(F)cc1Cl [Compound 78, Methyl 2-{{2-chloro-5-[3,6-dihydro-3-methyl-2,6-dioxo-4-(trifluoromethyl)-1(2H)-pyrimidinyl]-4-fluorophenyl}imino}-4-oxo-α-(p-nitrobenzyl)-3-thiazolidineacetate, L-]
ABUTH (Velvetleaf); rate 0.0158 kg/ha
  ABUTH herbicidal rating: 7.0
ABUTH (Velvetleaf); rate 0.0315 kg/ha
  ABUTH herbicidal rating: 9.0
ABUTH (Velvetleaf); rate 0.0630 kg/ha
  ABUTH herbicidal rating: 9.0
[1]; rate 0.0156 kg/ha
  Preemergence herbicidal rating CHEAL: 9.0
[1]; rate 0.0313 kg/ha
  Preemergence herbicidal rating CHEAL: 9.0
[1]; rate 0.0625 kg/ha
  Preemergence herbicidal rating CHEAL: 9.0
[1]; rate 0.1250 kg/ha
  Preemergence herbicidal rating CHEAL: 9.0
[1]; rate 0.2500 kg/ha
  Preemergence herbicidal rating CHEAL: 9.0
[2]; rate 0.0158 kg/ha
  GLXMAW herbicidal rating: 4.0
[2]; rate 0.0315 kg/ha
  GLXMAW herbicidal rating: 4.5
[2]; rate 0.0630 kg/ha
  GLXMAW herbicidal rating: 5.5
ECHCG (Barnyardgrass); rate 0.0158 kg/ha
  ECHCG herbicidal rating: 1.0
ECHCG (Barnyardgrass); rate 0.0315 kg/ha
  ECHCG herbicidal rating: 1.0
ECHCG (Barnyardgrass); rate 0.0630 kg/ha
  ECHCG herbicidal rating: 1.0
AMBEL (Ragweed, Common) [3]; rate 0.0156 kg/ha
  Preemergence herbicidal rating AMBEL: 0.0
AMBEL (Ragweed, Common) [3]; rate 0.0313 kg/ha
  Preemergence herbicidal rating AMBEL: 0.0
AMBEL (Ragweed, Common) [3]; rate 0.0625 kg/ha
  Preemergence herbicidal rating AMBEL: 0.0
AMBEL (Ragweed, Common) [3]; rate 0.1250 kg/ha
  Preemergence herbicidal rating AMBEL: 1.0
AMBEL (Ragweed, Common) [3]; rate 0.2500 kg/ha
  Preemergence herbicidal rating AMBEL: 1.0
ORYSAT (Rice, Tebonnet); rate 0.0158 kg/ha
  ORYSAT herbicidal rating: 3.0
ORYSAT (Rice, Tebonnet); rate 0.0315 kg/ha
  ORYSAT herbicidal rating: 3.5
ORYSAT (Rice, Tebonnet); rate 0.0630 kg/ha
  ORYSAT herbicidal rating: 4.0
CYPSE (Flatsedge) [4]; 0.0313 kg/ha
  CYPSE herbicidal effect rating: 6.0
CYPSE (Flatsedge) [4]; 0.0625 kg/ha
  CYPSE herbicidal effect rating: 6.0
CYPSE (Flatsedge) [4]; 0.1250 kg/ha
  CYPSE herbicidal effect rating: 7.0
CYPSE (Flatsedge) [4]; 0.2500 kg/ha
  CYPSE herbicidal effect rating: 9.0
GALAP (Galium); rate 0.0156 kg/ha
  Preemergence herbicidal rating GALAP: 0.0
GALAP (Galium); rate 0.0313 kg/ha
  Preemergence herbicidal rating GALAP: 0.0
GALAP (Galium); rate 0.0625 kg/ha
  Preemergence herbicidal rating GALAP: 0.0
GALAP (Galium); rate 0.1250 kg/ha
  Preemergence herbicidal rating GALAP: 3.0
GALAP (Galium); rate 0.2500 kg/ha
  Preemergence herbicidal rating GALAP: 2.0
CASOB (Sicklepod); rate 0.0313 kg/ha
  Preemergence herbicidal rating CASOB: 0.0
CASOB (Sicklepod); rate 0.0625 kg/ha
  Preemergence herbicidal rating CASOB: 0.0
CASOB (Sicklepod); rate 0.1250 kg/ha
  Preemergence herbicidal rating CASOB: 0.0
CASOB (Sicklepod); rate 0.2500 kg/ha
  Preemergence herbicidal rating CASOB: 1.0
[5]; rate 0.0158 kg/ha
  CHEAL herbicidal rating: 9.0
[5]; rate 0.0315 kg/ha
  CHEAL herbicidal rating: 9.0
[5]; rate 0.0630 kg/ha
  CHEAL herbicidal rating: 9.0
AMBEL (Ragweed, Common) [6]; rate 0.0158 kg/ha
  AMBEL herbicidal rating: 7.0
AMBEL (Ragweed, Common) [6]; rate 0.0315 kg/ha
  AMBEL herbicidal rating: 7.0
AMBEL (Ragweed, Common) [6]; rate 0.0630 kg/ha
  AMBEL herbicidal rating: 9.0
ZEAMX (Corn, Field); rate 0.0158 kg/ha
  ZEAMX herbicidal rating: 4.5
ZEAMX (Corn, Field); rate 0.0315 kg/ha
  ZEAMX herbicidal rating: 5.0
ZEAMX (Corn, Field); rate 0.0630 kg/ha
  ZEAMX herbicidal rating: 5.0
CYPSE (Flatsedge) [7]; Rate 0.0313 kg/ha
  Herbicidal rating CYPSE: 6.0
CYPSE (Flatsedge) [7]; Rate 0.0625 kg/ha
  Herbicidal rating CYPSE: 6.0
CYPSE (Flatsedge) [7]; Rate 0.1250 kg/ha
  Herbicidal rating CYPSE: 7.0
CYPSE (Flatsedge) [7]; Rate 0.2500 kg/ha
  Herbicidal rating CYPSE: 9.0
CYPIR (Rice Flatsedge); Rate 0.0313 kg/ha
  Herbicidal rating CYPIR: 5.0
CYPIR (Rice Flatsedge); Rate 0.0625 kg/ha
  Herbicidal rating CYPIR: 5.0
CYPIR (Rice Flatsedge); Rate 0.1250 kg/ha
  Herbicidal rating CYPIR: 6.0
CYPIR (Rice Flatsedge); Rate 0.2500 kg/ha
  Herbicidal rating CYPIR: 9.0
